The source of these data is US20170121295A1, “POLYCYCLIC LPA1 ANTAGONIST AND USES THEREOF” (AMIRA PHARMACEUTICALS, INC., priority 2010, published 2017).

Data set [1] in a line: Metabolites generated in vivo (rat bile and urine, rat and dog plasma). The procedure:
Compound 2 (2 mg/kg) was administered intravenously (IV) to fasted rats as a solution in 0.9% saline via a bolus injection into the jugular vein (2 mg/mL; […]).
Rats with surgically placed bile duct and jugular vein cannula were purchased from Charles River Laboratories and allowed to acclimate for 2 days. Compound 2 was intravenously dosed (2 mg/kg) to three rats as a solution in 0.9% saline (2 mg/mL; 1 mL/kg). Bile samples were collected at time-points 0-2, 2-5 and 5-8, and urine samples were collected at time-points 0-4 and 4-8 hrs post-dose in 8 mL scintillation vials and stored at −40° C. until analysis.
Concentrations of Compound 1 in rat plasma were determined by LC-MS/MS after protein precipitation. Rat plasma (100 μL) was treated with 400 μL of internal standard solution (ISTD, buspirone in acetonitrile containing 1.5% acetic acid) to precipitate proteins. Samples were vortexed and then centrifuged for 10 min at approximately 4,000 rpm (3700×g) at 4° C. (Beckman centrifuge, Brea, Calif.).
Parent/metabolite analysis was conducted in the positive ion mode (ESI) by multiple reaction monitoring of parent. The mobile phases contained 10 mM ammonium acetate in water with 0.05% formic acid (solvent A) and 10 mM ammonium acetate in 50% acetonitrile/50% methanol with 0.05% formic acid (solvent B). For Compound 1, the flow rate was maintained at 1 mL/min and the total run time was 2.5 min. Analytes were separated on a YMC ODS-AQ column (2.1×150 mm; 3 μm) and eluted with a linear gradient as follows: • 1. mobile phase was held for 0.5 min at 5% B, • 2. B was increased from 5% to 95% over the next 0.2 min, • 3. B was held constant for 1.3 min at 95%, and • 4. B was returned to the initial gradient conditions.
For metabolite quantitation, the flow rate was maintained at 0.25 mL/min and the total run time was 60 min. Analytes were separated using a linear gradient as follows: • 1. mobile phase was held for 5 min at 5% B, • 2. B was increased from 5% to 95% over the next 45 min. • 3. B was held constant for 5 min at 95%, and • 4. B was returned to the initial gradient conditions

For data set [2], the target named is T1, Human LPA3 (Homo sapiens, UniProt Q9UBY5).
T1 construct: The full-length cDNA fragment for human LPA3 was obtained by PCR from the vector
T1 sequence (Q9UBY5 1-353): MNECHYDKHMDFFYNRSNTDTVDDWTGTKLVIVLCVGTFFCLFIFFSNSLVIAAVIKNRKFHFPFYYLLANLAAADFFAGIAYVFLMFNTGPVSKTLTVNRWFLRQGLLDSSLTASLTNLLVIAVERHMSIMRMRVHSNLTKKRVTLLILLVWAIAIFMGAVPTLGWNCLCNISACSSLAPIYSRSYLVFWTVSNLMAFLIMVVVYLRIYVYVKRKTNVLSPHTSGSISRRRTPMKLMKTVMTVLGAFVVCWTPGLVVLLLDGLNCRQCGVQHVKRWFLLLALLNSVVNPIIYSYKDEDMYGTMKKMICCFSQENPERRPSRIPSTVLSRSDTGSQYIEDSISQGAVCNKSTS
Kind of data set: LPA3 Calcium Flux Assay. The following applies: human LPA3 expressing CHO cells, 10 nM LPA; read-out: Ca Flux IC50 LPA3. The class given is cell-based. On the procedure:
A vector containing the human LPA3 receptor cDNA was obtained from the Missouri S&T cDNA Resource Center (www.cdna.org). The full-length cDNA fragment for human LPA3 was obtained by PCR from the vector. The nucleotide sequence of the cloned human LPA3 was determined by sequencing and confirmed to be identical to the published human LPA3 sequence (NCBI accession number NM_012152). The cDNA was cloned into the pCDNA5/FRT expression plasmid and transfected in CHO cells using lipofectamine 2000 (Invitrogen Corp., USA). Clones stably expressing human LPA3 were selected using hygromycin and identified as cells that show Ca-influx in response to LPA.
Human LPA1 or LPA3 expressing CHO cells are seeded at 20,000-45,000 cells per well in a 96-well poly-D-lysine coated plate one or two days before the assay. Prior to the assay, the cells are washed once with PBS and then cultured in serum-free media overnight. On the day of the assay, a calcium indicator dye (Calcium 4, Molecular Devices) in assay buffer (HBSS with Ca^2+ and Mg^2+ and containing 20 mM Hepes and 0.3% fatty-acid free human serum albumin) is added to each well and incubation continued for 1 hour at 37° C. 10 μl of test compound in 2.5% DMSO are added to the cells and incubation continued at room temperature for 30 minutes. Cells are the stimulated by the addition of 10 nM LPA and intracellular Ca^2+ measured using the Flexstation 3 (Molecular Devices). IC50s are determined using Graphpad prism analysis of drug titration curves.
For orientation: A change in cytosolic calcium serves as a functional read-out for many receptors and channels.

In data set [3] the target is T2, human LPA2 (Homo sapiens, UniProt Q9HBW0).
T2 construct: endogenous in cells; host or cells: BT-20 human breast cancer cells
T2 sequence (Q9HBW0 whole entry): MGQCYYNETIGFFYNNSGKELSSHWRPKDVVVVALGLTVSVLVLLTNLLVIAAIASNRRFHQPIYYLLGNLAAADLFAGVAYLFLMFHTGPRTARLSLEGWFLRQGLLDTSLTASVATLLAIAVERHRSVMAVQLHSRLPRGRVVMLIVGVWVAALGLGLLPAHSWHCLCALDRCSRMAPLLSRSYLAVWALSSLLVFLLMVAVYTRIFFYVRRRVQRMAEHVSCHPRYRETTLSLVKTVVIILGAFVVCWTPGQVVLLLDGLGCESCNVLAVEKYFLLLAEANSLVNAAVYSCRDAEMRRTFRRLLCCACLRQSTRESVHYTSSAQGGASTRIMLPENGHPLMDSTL
Kind of data set: LPA2 Calcium Flux Assay. The following applies: 100 nM LPA; read-out: Ca Flux IC50 LPA2. The class given is cell-based. The procedure:
A vector containing the human LPA2 receptor cDNA was obtained from the Missouri S&T cDNA Resource Center (www.cdna.org). The full-length cDNA fragment for human LPA2 was obtained by PCR from the vector. The nucleotide sequence of the cloned human LPA2 was determined by sequencing and confirmed to be identical to the published human LPA2 sequence (NCBI accession number NM_004720). The cDNA was cloned into the pCDNA3.1 expression plasmid and transfected into B103 cells (Invitrogen Corp., USA) by seeding cells in a 96-well poly-D-lysine coated plate at 30,000-35,000 cells per well together with 0.2 μl lipofectamine 2000 and 0.2 μg of the LPA2 expression vector. Cells were cultured overnight in complete media before being assayed for LPA-induced Ca-influx.
BT-20 human breast cancer cells are seeded at 25,000-35,000 cells per well in 150 μl complete media on Poly-D-Lysine coated black-wall clear-bottom plates. Following an overnight culture, cells are washed once with PBS then serum starved for 4-6 hours prior to the assay. […] Cells are the stimulated by the addition of 100 nM LPA and intracellular Ca^2+ measured using the Flexstation 3 (Molecular Devices). IC50s are determined using Symyx Assay Explorer analysis of drug titration curves.

In data set [4] the target is LPA4 (Homo sapiens, UniProt Q99677). Kind of data set: LPA4 Calcium Flux Assay. Type of data set: cell-based. The following applies: read-out: Ca Flux IC50 LPA4.
Sequence of LPA4 (Q99677 whole entry, species assumed): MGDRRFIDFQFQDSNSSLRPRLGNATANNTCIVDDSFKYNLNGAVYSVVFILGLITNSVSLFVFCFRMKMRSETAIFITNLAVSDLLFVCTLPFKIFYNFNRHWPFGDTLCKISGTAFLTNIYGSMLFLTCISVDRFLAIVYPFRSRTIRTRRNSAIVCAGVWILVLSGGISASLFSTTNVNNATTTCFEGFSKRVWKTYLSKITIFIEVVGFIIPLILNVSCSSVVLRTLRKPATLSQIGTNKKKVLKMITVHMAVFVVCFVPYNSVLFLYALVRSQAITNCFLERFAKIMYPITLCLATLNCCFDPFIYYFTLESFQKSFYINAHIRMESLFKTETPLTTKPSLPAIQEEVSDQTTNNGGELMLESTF

SMILES strings stand for the structures. A value given as a limit tells only on which side of the number the result lay.

With `Cc1noc(-c2ccc(-c3ccc(C4(C(=O)O)CC4)cc3)cc2)c1NC(=O)O[C@H](C)c1ccccc1` [Compound 1, 1-{4′-[3-methyl-4-((R)-1-phenyl-ethoxycarbonylamino)-isoxazol-5-yl]-biphenyl-4-yl}-cyclopropanecarboxylic acid], the “GSH adduct in rat bile” value in data set [1] (in vivo) is “neither GSH adduct is observed”. In data set [1] (plasma (rat & dog), rat bile or urine), the “primary amine (decarboxylation) and its secondary metabolites” value is listed as “Neither the primary amine (i.e. decarboxylation) nor its secondary metabolites (glycosylation or glucuronidation) are observed”. In addition, the IC50 in data set [2], in data set [3] and in data set [4] was over 1000 nM each time.
